Data on eight compounds can be found in patent publication US7812042B2, “Pharmaceutical compositions and therapeutic applications for the use of a novel vitamin B12 derivative, N-acetyl-L-cysteinylcobalamin” (priority 2006, dated 2010).

One data set has as its system Hsp32. The data set can be described thus: Hsp32 gene expression in SK-HEP-1 cells (RT-PCR, densitometry). Type of data set: cell-based, Human. As to conditions: homocysteine 30 μM, folate 30 μM (2 hr), Sn(IX) protoporphyrin 25 μM, quercitin 15 μM.
The subject of another data set is Hsp70. The conditions noted are these: SK-HEP-1; homocysteine 30 μM, folate 30 μM (2 hr), quercitin 15 μM.
Data set [1] concerns SK-HEP-1 cells. As to conditions: human, 2 h. The procedure:
Cell viability was determined by MTS® assay. […] Cell viability was determined by MTS® assay.

In data set [2] the test system is SK-HEP-1 cells. The data set can be described thus: Effect of high concentrations of NACCbl and GSCbl on SK-HEP-1 cells (MTS assay). On the set-up: cell viability (MTS), raw readings (FIG. 13): reference not given here. The conditions noted are these: 24 hours; for cell viability (MTS), raw readings (FIG. 13): 3 replicates. Format: cell-based, Human. On the technique in general: Tetrazolium dyes change colour on reduction, which living cells bring about.

A further data set addresses T1, methionine synthase (Oryctolagus cuniculus, UniProt G1SXW3).
T1 construct: methionine synthase activity in rabbit spleen extracts; from tissue; host or cells: rabbit spleen extracts
The conditions noted are these: rabbit spleen extracts; cited from earlier work.

In data set [3] the test system is SK-HEP-1 cells. Briefly: Protection of endothelial cells from H2O2-induced cell death (MTS assay). Type of data set: cell-based, Human. The conditions noted are these: 2 hours pre-incubation, then 25 μM H2O2 24 hours. The procedure:
The effect of increasing concentrations of NACCbl and GSCbl to protect endothelial cells from the effect of H2O2 was assessed. […] Cell viability was determined by MTS® assay. […] Cell viability was determined by MTS® assay. […] Cell viability was determined by MTS® assay.

Data set [4] deals with SK-HEP-1 cells. Briefly: Protection from apoptosis induced by homocysteine (Caspase-3 activity). Type of data set: cell-based, Human. The conditions noted are these: 30 μM pre-treatment two hours, then 30 μM homocysteine two hours. The procedure:
Caspase 3 is activated when cells undergo apoptosis. Caspase-3 assay is a standard for apoptosis assay. Homocysteine is a known inducer of apoptosis. Cells were cultured in 96-well plates for 24 hours and then treated with reagents under test conditions. Cytotoxic agents, H2O2 and etoposide were added to negative control wells. The assay was performed according to the manufacturer's protocol, as follows: Cells were re-suspended in 100 μl of clear media and 50 μl of Caspase-3 substrate solution was immediately added to each test well. […] Cell viability was determined by MTS® assay. […] Cell viability was determined by MTS® assay.

For data set [5], the system named is SK-HEP-1 cells. Briefly: Protection of endothelial cells from homocysteine-induced cell death (MTS assay, absorbance at 490 nm; includes comparison of NACCbl, NAC, cyanocobalamin+NAC, free thiols, other cobalamins, folate). Format: cell-based, Human. As to conditions: for Absorbance at 490 nm (n = 6): replicates Y1-Y6, listed as Hcy. The procedure: The effect of a constant concentration of NACCbl and GSCbl to protect cells against variable concentrations of homocysteine was assessed. […] Cell viability was determined by MTS® assay. Data shown in FIG. 4 are representative of means ±SE of 6 independent samples. FIG. 4 illustrates that NACCbl (▪) and GSCbl (▴) protect endothelial cells from the effect of homocysteine. […] Cell viability was determined by MTS® assay. […] There was a decrease in protection as homocysteine concentration increased, but there was still ˜60% survival at 50 μM homocysteine.
The data was normalized (log 2 and log 10) as shown in FIGS. 16 and 17 and Tables 16 and 17, respectively, below.

A short description of data set [6]: Decomposition of thiolatocobalamins in PBS at 37° C. monitored by UV/Vis spectrophotometry. Type of data set: physicochemical. The conditions noted are these: decomposition in PBS at 37° C. The procedure: The decomposition of GSCbl, NACCbl, and HcyCbl in PBS at 37° C. was monitored by UV/Vis spectrophotometry.
Data set [7] deals with SK-HEP-1 cells. Briefly: NACCbl protection from homocysteine with Hsp32/Hsp70 inhibited by Sn(IX) protoporphyrin, quercitin or siRNA (MTS assay). Format: cell-based, Human. The conditions noted are these: where named, NACCbl 30 μM pre-treatment two hours with/without Sn(IX)PP, quercetin, replicates 1-6, listed as Hcy.
Text: siRNAs for human HO-1 were synthesised in 2′-deprotected, duplexed, desalted and purified form by Dharmacon Research Inc., published sequences from Zhang et al., (Zhang, Shan et al. 2004). Human Hsp70 primers were from proprietary sequences, and all control non-targeting primer sequences were also synthesised by Dharmacon Research Inc.
Transfection was optimised using a standard siControl Tox protocol. All transfection experiments included non-targeted siRNA.
Cells were trypsinized and plated into 12- or 96-well plates at cell density of 2×10^5, then incubated for 24 hours until adherent. Complexed siRNA and transfection agent at 100 nm was added directly to each experimental well. Plates were incubated at 37° C. for 32.5 hours for mRNA gene analysis experiments or 72 hours for protein analysis by Western Blot.
Complexed siRNA and transfection agent was added to each well of either 12- or 96-well plates. Cells were then trypsinized and added directly into each test well at cell density of 2×10^5. Plates were incubated at 37° C. for 32.5 hours for mRNA gene analysis experiments or 72 hours for protein analysis by Western Blot.
Hsp32 was inhibited using either Sn (IX) protoporhyrin or using an siRNA which specifically knocks out Hsp32. Hsp70 was inhibited using quercitin or using an siRNA which specifically knocks out Hsp70. In addition, two methods were used to inhibit both Hsp32 and Hsp70: chemically Sn (IX) protoporphyrin plus quercitin was used; and then, directly, a combination of the siRNA for both genes was used simultaneously.

SMILES strings stand for the structures. Where “and” joins values, the source holds several entries; their conditions need not be identical. Identical values can stand only once. Counter-ions that a name gives are not always drawn.

T1 sequence (G1SXW3 1-1218): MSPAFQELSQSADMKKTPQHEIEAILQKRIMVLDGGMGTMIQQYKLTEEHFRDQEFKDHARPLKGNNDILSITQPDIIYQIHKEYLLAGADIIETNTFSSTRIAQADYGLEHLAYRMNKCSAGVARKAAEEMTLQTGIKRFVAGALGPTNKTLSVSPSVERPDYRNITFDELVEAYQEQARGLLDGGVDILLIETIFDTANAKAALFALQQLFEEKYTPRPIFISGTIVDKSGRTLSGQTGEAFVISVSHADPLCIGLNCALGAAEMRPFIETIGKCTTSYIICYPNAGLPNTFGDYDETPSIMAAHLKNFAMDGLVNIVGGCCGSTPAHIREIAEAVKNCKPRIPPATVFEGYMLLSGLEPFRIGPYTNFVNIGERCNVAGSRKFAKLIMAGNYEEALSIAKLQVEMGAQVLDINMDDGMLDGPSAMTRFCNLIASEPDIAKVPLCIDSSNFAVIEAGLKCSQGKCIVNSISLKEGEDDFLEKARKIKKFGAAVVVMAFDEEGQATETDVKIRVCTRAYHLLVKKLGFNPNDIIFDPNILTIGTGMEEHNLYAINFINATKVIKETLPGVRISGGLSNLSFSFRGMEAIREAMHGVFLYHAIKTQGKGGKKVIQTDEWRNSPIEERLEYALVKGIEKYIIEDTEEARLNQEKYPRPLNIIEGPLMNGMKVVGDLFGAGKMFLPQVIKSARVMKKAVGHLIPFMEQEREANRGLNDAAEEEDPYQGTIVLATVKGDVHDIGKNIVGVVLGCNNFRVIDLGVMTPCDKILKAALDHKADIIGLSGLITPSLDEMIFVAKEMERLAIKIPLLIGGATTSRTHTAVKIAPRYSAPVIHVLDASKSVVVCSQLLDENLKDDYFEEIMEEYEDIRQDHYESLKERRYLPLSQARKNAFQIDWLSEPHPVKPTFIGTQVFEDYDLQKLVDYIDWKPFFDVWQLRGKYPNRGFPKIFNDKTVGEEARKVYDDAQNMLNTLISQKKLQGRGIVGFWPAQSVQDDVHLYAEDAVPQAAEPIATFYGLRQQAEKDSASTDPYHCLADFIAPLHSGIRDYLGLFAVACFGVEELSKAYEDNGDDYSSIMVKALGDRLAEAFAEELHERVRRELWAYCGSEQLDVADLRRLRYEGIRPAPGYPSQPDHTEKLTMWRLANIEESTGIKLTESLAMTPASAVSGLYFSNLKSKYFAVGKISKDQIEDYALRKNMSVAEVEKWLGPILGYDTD

`C=CC1=C(C)c2cc3[n-]c(cc4[n-]c(cc5nc(cc1n2)C(C)=C5C=C)c(C)c4CCC(=O)O)c(CCC(=O)O)c3C.[Cl-].[Cl-].[Sn+4]` [Sn (IX) protoporphyrin, 8,13-Bis(vinyl)-3,7,12,17-tetramethyl-21H,23H-porphine-2,18dipropionic acid tin(IV) dichloride]: in the data set with Hsp32, the “effect on Hsp32 gene expression” value is on record as “inhibited”.

Regarding `O.O.O=c1c(O)c(-c2ccc(O)c(O)c2)oc2cc(O)cc(O)c12` [Quercitin, 2-(3,4-Dihydroxyphenyl)-3,5,7-trihydroxy-4H-1-benzopyran-4-one dihydrate], in the data set on Hsp70, the “effect on Hsp70 gene expression” value is listed as “inhibits Hsp70 gene expression”. Moreover, the “effect on Hsp32 gene expression” value in the data set on Hsp32 was “does not inhibit Hsp32 gene expression”.

Consider `OO` [H2O2, Hydrogen peroxide], for which, in the data set on SK-HEP-1 cells [1], the “concentration achieving greater than 90% death” value is 12.5 µM and the “concentration sufficient to kill cultured endothelial cells (P<0.001)” value was at least 3 μm.

In the case of `C/C1=C2N=C(/C=C3N=C(/C(C)=C4\[N-]C(C(CC(N)=O)C4(C)CCC(=O)NCC(C)OP(=O)([O-])OC4C(CO)OC(n5cnc6cc(C)c(C)cc65)C4O)C4(C)N=C1C(CCC(N)=O)C4(C)CC(N)=O)C(CCC(N)=O)C\3(C)C)C(CCC(N)=O)C/2(C)CC(N)=O.NC(CCC(=O)NC(C[S-])C(=O)NCC(=O)O)C(=O)O.[Co+3]` (stereo not drawn) [GSCbl, Glutathionylcobalamin, reference compound], in the data set with SK-HEP-1 cells [2] (above 0.2 mM concentration), the “cell death compared with NACCbl” value was “caused greater cell death than NACCbl”. In addition, the “cell viability (MTS), raw readings (FIG. 13)” value (from here on “cell viability … (FIG. 13)”) in the data set on SK-HEP-1 cells [2] (compound conc. 0.61 (μM scale)) is 2.554 and 2.376 and 2.53; in the data set with SK-HEP-1 cells [2] (compound conc. 1.22 (μM scale)) it was 2.347 and 2.433 and 2.503; in the data set on SK-HEP-1 cells [2] (compound conc. 2.441 (μM scale)), 2.527 and 2.434 and 2.46; in the data set with SK-HEP-1 cells [2] (compound conc. 4.882 (μM scale)), 2.543 and 2.528 and 2.519; in the data set with SK-HEP-1 cells [2] (compound conc. 9.765 (μM scale)), 2.532 and 2.476 and 2.42; with SK-HEP-1 cells [2] (compound conc. 19.531 (μM scale)) it was 2.553 and 2.476 and 2.42. The “cell viability … (FIG. 13)” value was 2.492 and 2.484 and 2.468 in the data set with SK-HEP-1 cells [2] (compound conc. 39.062 (μM scale)); 2.444 and 2.406 and 2.402 with SK-HEP-1 cells [2] (compound conc. 78.125 (μM scale)); 2.407 and 2.37 and 2.318 in the data set on SK-HEP-1 cells [2] (compound conc. 156.25 (μM scale)); 2.306 and 2.204 and 2.138 with SK-HEP-1 cells [2] (compound conc. 312.5 (μM scale)); 2.197 and 1.912 and 1.787 in the data set on SK-HEP-1 cells [2] (compound conc. 625 (μM scale)); 1.973 and 1.846 and 1.71 in the data set on SK-HEP-1 cells [2] (compound conc. 1250 (μM scale)). In addition, the “cell viability … (FIG. 13)” value with SK-HEP-1 cells [2] (compound conc. 2500 (μM scale)) is 1.775 and 1.81 and 1.896; in the data set with SK-HEP-1 cells [2] (compound conc. 5000 (μM scale)) it was 1.728 and 1.67 and 1.623; with SK-HEP-1 cells [2] (compound conc. 10000 (= 10 mM)) it was 1.322 and 1.342 and 1.366. Besides, on methionine synthase, the “promotion of methionine synthase activity” value is “more active than other cobalamins in promoting methionine synthase activity”. Moreover, the “concentration required to achieve >80% survival” value in the data set with SK-HEP-1 cells [3] turned out to be 100 µM. The “protection against apoptosis induced by homocysteine” value in the data set with SK-HEP-1 cells [4] was “total protection”. In the data set on SK-HEP-1 cells [5] (30 μM cobalamin pre-incubation two hours, then 50 μM homocysteine two hours), this compound yielded a survival of about 60%. Moreover, in the data set on SK-HEP-1 cells [5] (2 hours pre-incubation, then 30 μM homocysteine 24 hours), the “concentration required for >80% survival protection” value was 50 µM. In addition, the “protection against homocysteine-induced damage compared with free thiols” value in the data set with SK-HEP-1 cells [5] (Hcy 30 μM, NAC 45, GSH 100, NACCbl 12.5, GSCbl 15 μM, with or without folate 25 μM) is on record as “superior to the free thiols”. Also, the “effect on Hsp32 gene expression” value in the data set on Hsp32 is given as “induce Hsp32”. Also, the t1/2 entry in [6] is “No decomposition within 20 hours”.

As to `CC(=O)N[C@@H](CS)C(=O)O` [NAC, N-Acetyl-L-Cysteine, reference compound], in the data set on SK-HEP-1 cells [5] (Conc. Hcy 3.125 (μM), NACCbl 30 μM, NAC 75 μM), the “Absorbance at 490 nm, Mean (n = 6)” value was found to be 1.897.

`CC1=C2N=C(C=C3N=C(C(C)=C4[N-]C(C(CC(N)=O)C4(C)CCC(=O)NCC(C)OP(=O)([O-])OC4C(CO)OC(n5cnc6cc(C)c(C)cc65)C4O)C4(C)N=C1C(CCC(N)=O)C4(C)CC(N)=O)C(CCC(N)=O)C3(C)C)C(CCC(N)=O)C2(C)CC(N)=O.NC(CC[S-])C(=O)O.[Co+3]` [HcyCbl, D,L-homocysteinyl-cobalamin]: in data set [6], the t1/2 turned out to be 6.6 h.

As for `CN1c2c(nc(N)[nH]c2=O)NC[C@@H]1CNc1ccc(C(=O)N[C@@H](CCC(=O)O)C(=O)O)cc1` [folate, 5-Methyltetrahydrofolic acid disodium salt], the “effect on Hsp70 gene expression” value in the data set with Hsp70 is reported as “increase in expression”. Moreover, the “protection against apoptosis induced by homocysteine” value with SK-HEP-1 cells [4] is “partial protection”. Also, the “effect on Hsp32 gene expression” value in the data set on Hsp32 is “increase in expression”.

As for `NC(CCS)C(=O)O` (racemic) [Homocysteine, DL-Homocysteine], the “effect on Hsp70 gene expression” value in the data set with Hsp70 was “increase in expression”. The “concentration achieving greater than 90% death” value with SK-HEP-1 cells [1] came out at 25 µM. Moreover, the “concentration that killed cells (p<0.001)” value in the data set on SK-HEP-1 cells [1] is at least 5 µM. Further, the “cell viability (MTS), raw readings (FIG. 11)” value in the data set with SK-HEP-1 cells [7] (Hcy 25 (μM) two hours) was 0.74; in the data set with SK-HEP-1 cells [7] (Hcy 50 (μM) two hours) it was 0.77; in the data set on SK-HEP-1 cells [7] (Hcy 100 (μM) two hours) it was 0.51; in the data set on SK-HEP-1 cells [7] (Hcy 200 (μM) two hours), 0.33 and 0.39. In addition, the “Absorbance at 490 nm, Mean (n = 6)” value in the data set on SK-HEP-1 cells [5] (Conc. Hcy 200.000 (μM), NACCbl 30 μM, NAC 75 μM) is 0.360. In addition, the “normalized cell viability (MTS), percent, mean of 6” value with SK-HEP-1 cells [5] (Conc. Hcy 200.000, NACCbl 30 μM, NAC 75 μM) is reported as −0.033. For the same compound, the “Absorbance at 490 nm (n = 6)” value with SK-HEP-1 cells [5] (Conc. of Hcy 25.000, NACCbl 30 μM, NAC 75 μM) is 0.740; with SK-HEP-1 cells [5] (Conc. of Hcy 50.000, NACCbl 30 μM, NAC 75 μM), 0.770; with SK-HEP-1 cells [5] (Conc. of Hcy 100.000, NACCbl 30 μM, NAC 75 μM), 0.510; in the data set on SK-HEP-1 cells [5] (Conc. of Hcy 200.000, NACCbl 30 μM, NAC 75 μM), 0.330 and 0.390. For the same compound, the “effect on Hsp32 gene expression” value with Hsp32 was “increase in expression”.
